According to US9101161B2, “High-potency sweetener composition with phytoestrogen and compositions sweetened therewith” (The Coca-Cola Company, priority 2006, dated 2015):

Assays:
[1] = Sensory evaluation of sweetness linger, Example Set H (REBA in phosphoric acid solution pH 2.4-2.5); format: in vivo; parameters: key: 0=no sweetness linger; 1=very slight sweetness linger; 2=slight sweetness linger; 3=moderate sweetness linger; 4=moderately high sweetness linger; 5 high sweetness linger; details: 500 ppm REBA (H41: 360 ppm) in carbon-treated water, phosphoric acid (75%) to pH 2.4-2.5, plus additive; scale 0-5
[2] = Sensory evaluation of sweetness linger, Example Set G (REBA in citric acid/potassium citrate composition); format: in vivo; parameters: key: 0=no sweetness linger; 1=very slight sweetness linger; 2=slight sweetness linger; 3=moderate sweetness linger; 4=moderately high sweetness linger; 5 high sweetness linger; details: for sweetness linger: 400 ppm REBA in citric acid/potassium citrate composition equivalent to diet lemon-lime beverage, plus additive, expert panel, scale 0-5, sweetness 3-4 min after water rinse; for Sweetness Linger rating defined for controls: defined by the protocol, sucrose, 500 ppm REBA control sample
Description: Sensory evaluation of the samples prepared in Example Set G was carried out under the following protocol, similar to that described hereinabove. In this test protocol, none of the samples were swallowed. All samples were expectorated and the mouth was rinsed with water after the tasting, Immediately upon sensing maximal sweetness, the sample was expectorated, the mouth was rinsed with water and the rate of sweetness decay (“Sweetness Linger”) was measured, where attention was focused on the sweetness 3-4 min after the water rinse. After sample tasting was complete, a salty oyster cracker was chewed followed by a water rinse, and at least 5 minutes followed before tasting the next sample. The sweetness linger was rated by a panel of experts in the sensory evaluation of foods and beverages using the following scale: 0=no sweetness linger, 1=very slight sweetness linger, 2=slight sweetness linger, 3=moderate sweetness linger, 4=moderately high sweetness linger, 5 high sweetness linger.
The “Sweetness Linger” rating for sucrose observed by this protocol is defined as 0. The Sweetness Linger of a 500 ppm of REBA control sample is defined as 5. Experimental samples were tasted by the same protocol, always allowing sufficient time between samples to ensure re-equilibration of the sensory system. Re-tasting of control samples during the course of the experiment was allowed and encouraged.
The comparison taste test was performed between two controls and addition of sweet taste improving additive on the onset and/or sweetness linger.
The effects of formulation change on the sweetness linger of 400 ppm REBA (equivalent to 8 g sucrose) in a citric acid/potassium citrate composition equivalent to that in a diet lemon-lime beverage were evaluated. The sweetness linger rating of this solution was determined to be 5.
8 g of sugar was dissolved in 100 ml of citrate buffer. The sweetness linger rating of this control sample was determined to be 0.

[3] = Sweetness level as sucrose equivalent; details: 400 ppm REBA
[4] = Rate of dissolution in H2O at 25° C. of rebaudioside A polymorph and amorphous forms; format: physicochemical
[5] = format: physicochemical
Description: A solution of rebaudioside A (>97% pure by HPLC) was prepared in double distilled water (12.5 gm in 50 mL, 25% concentration) by stirring the mixture at 40° C. for 5 minutes. An amorphous form of rebaudioside A was formed by immediately using the clear solution for spray drying with the Lab-Plant spray drier SD-04 instrument (Lab-Plant Ltd., West Yorkshire, U.K.). The solution was fed through the feed pump into the nozzle atomizer which atomized it into a spray of droplets with the help of a constant flow of nitrogen/air. […] This dry powder (11-12 g, H2O, 6.74%) was discharged continuously from the drying chamber and was collected in a bottle.

| Compound | sweetness linger [1] | sweetness linger [2] | Sweetness Linger rating defined for controls [2] | sucrose equivalent [3] | Rate of dissolution in H2O at 25° C. ([4]; H2O, 25° C.) | Rate of dissolution in H2O at 25° C. ([4]; grade in words) | solubility in water at room temperature [5] |
| --- | --- | --- | --- | --- | --- | --- | --- |
| OC[C@H]1O[C@@](CO)(O[C@H]2O[C@H](CO)[C@@H](O)[C@H](O)[C@H]2O)[C@@H](O)[C@@H]1O [sucrose] | 0 | 0 | 0 | – | – | – | – |
| rebaudioside A | 5 | 5 | 5 | 8 g sucrose | – | – | – |
| rebaudioside A [Form 1] | – | – | – | – | (<0.2%/60 %/60 minutes | Very low | – |
| rebaudioside A [Form 2] | – | – | – | – | (<30%/5 %/5 minutes | Intermediate | – |
| rebaudioside A [Form 3] | – | – | – | – | > 30 %/5 minutes | High | – |
| rebaudioside A [Form 4] | – | – | – | – | > 35 %/5 minutes | High | > 35.0% |
